Assay results: patent publication EP0341019A2, “Polyether antibiotic” (priority 1988, dated 1989)
Several values for one entry are separate records, joined by “and”; a condition that tells them apart may be missing. Equal entries are not always repeated. Positions of bridges follow the written chain, without caps; N, C: chain ends. Non-standard residues stand in square brackets, D forms with d. Residues, ends and D or L forms follow the SMILES beside them. *: point of attachment. Ileψ(thiazoline)Cys = CC[C@H](C)[C@H](N)C1=N[C@H](C(=O)*)CS1; dOrn = NCCC[C@@H](N)C(=O)O

Assays:
[1] = test system: culture A82810.1 (Actinomadura fibrosa sp. nov. NRRL 18348); test: antibiotic sensitivity disc test on seeded ISP No. 2 agar; format: cell-based; parameters: key to Resistance to: (A82810.1): Resistance was scored as (+) when no zone of inhibition was observed; (-) when a zone of inhibition was observed; conditions: for resistance / sensitivity of culture A82810.1 to the antibiotic: cephalothin 30 µg, lincomycin 2 µg, penicillin G 10 units, rifampin 5 µg, lysozyme 50 µg/mL, bacitracin 10 units, gentamicin 10 µg, neomycin 30 µg, oleandomycin 15 µg, streptomycin 10 µg, tetracycline 30 µg, tobramycin 10 µg, vancomycin 30 µg; for Resistance to: (A82810.1): Oleandomycin 16 µg, Penicillin G 10 units
Experimental: (§1) Resistance to antibiotics was measured by padding antibiotic sensitivity discs onto the surface of seeded ISP No. 2 agar plates. Resistance was scored as (+) when no zone of inhibition was observed and as (-) when a zone of inhibition was observed.

[2] = test system: Eimeria acervulina Strain 59 And E. tenella Strain 155; test: anticoccidial feed test in infected chickens, ionophore-sensitive strains; format: in vivo; conditions: A82810 0 ppm
[3] = test system: Eimeria maxima Strain FS-177; test: anticoccidial feed test in infected chickens, ionophore-sensitive strain; format: in vivo; conditions: A82810 0 ppm
A. verrucosospora = test: antibiotic sensitivity disc test (species comparison); format: cell-based; parameters: key: Resistance was scored as (+) when no zone of inhibition was observed; (-) when a zone of inhibition was observed; conditions: Oleandomycin 16 µg; Penicillin G 10 units
Experimental: as §1

[4] = test system: Eimeria acervulina Strain FS-316 And E. tenella Strain FS-456; test: anticoccidial feed test in infected chickens, ionophore-resistant strains; format: in vivo; conditions: A82810 0 ppm
[5] = test system: E. acervulina Strain FS-316; test: anticoccidial feed test in infected chickens, ionophore-resistant strain; format: in vivo; conditions: Table X, A82810 0 ppm
[6] = test system: Eimeria maxima Strain FS-410; test: as above; format: in vivo; conditions: A82810 0 ppm
[7] = test system: Eimeria acervulina H & C and Eimeria tenella Wis; test: anticoccidial feed test in infected chickens, ionophore-sensitive strains; format: in vivo; conditions: Table XIX, A82810 0 ppm
[8] = test system: Eimeria acervulina Strain FS-273 and E. tenella Strain FS-456; test: anticoccidial feed test in infected chickens, ionophore-resistant strains; format: in vivo; conditions: Table XX, A82810 0 ppm
E. maxima Strain LIT-626 = test: anticoccidial feed test in infected chickens, ionophore-resistant strain; format: in vivo; conditions: Table XIII; A82810 0 ppm; Benzeneamine ppm r4-r7: 8,10,12,14
[9] = Benzeneamine ppm r4-r6: 8,12,16
[10] = Benzeneamine ppm r10-r12: 8,12,16

neomycin
resistance / sensitivity of culture A82810.1 to the antibiotic [1]: sensitive

CCC[C@@H]1C[C@@H](C(=O)N[C@@H]([C@H]2O[C@H](SC)[C@H](O)[C@@H](O)[C@H]2O)[C@@H](C)O)N(C)C1 [lincomycin]
resistance / sensitivity of culture A82810.1 to the antibiotic [1]: resistant

O=[N+]([O-])c1cc([N+](=O)[O-])c(Nc2ccc(Cl)c3ccccc23)c(C(F)(F)F)c1 [4-chloro-N-[2,4-dinitro-6-(trifluoromethyl)phenyl]-1-naphthaleneamine]
WEIGHT GAIN, PERCENT OF CONTROL ([2]; Table XXII, 4-chloro naphthaleneamine ppm r11-r14: 4,8,12,16): 80% OF CONTROL and 78% OF CONTROL and 92% OF CONTROL | WEIGHT GAIN, PERCENT OF CONTROL ([3]; Table XXIII, 4-chloro naphthaleneamine ppm r11-r14: 4,8,12,16): 87% OF CONTROL and 80% OF CONTROL and 85% OF CONTROL and 84% OF CONTROL

CO[C@H]1/C=C/O[C@@]2(C)Oc3c(C)c(O)c4c(O)c(c(/C=N/N5CCN(C)CC5)c(O)c4c3C2=O)NC(=O)/C(C)=C\C=C\[C@H](C)[C@H](O)[C@@H](C)[C@@H](O)[C@@H](C)[C@H](OC(C)=O)[C@@H]1C [rifampin]
resistance / sensitivity of culture A82810.1 to the antibiotic [1]: resistant

gentamicin
resistance / sensitivity of culture A82810.1 to the antibiotic [1]: sensitive

O=[N+]([O-])c1cc([N+](=O)[O-])c(Nc2ccc(Br)c3ccccc23)c(C(F)(F)F)c1 [4-Bromo-N-[2,4-dinitro-6-trifluoromethyl)phenyl]-1-naphthaleneamine]
WEIGHT GAIN, PERCENT OF CONTROL ([2]; Table XXIV, 4-Bromo naphthaleneamine ppm r4-r7: 4,8,12,16): 73% OF CONTROL and 66% OF CONTROL and 72% OF CONTROL and 67% OF CONTROL | AVERAGE INTESTINAL LESION SCORES ([2]; Table XXIV, 4-Bromo naphthaleneamine ppm r11-r14: 4,8,12,16): 6.2 and 6.9 and 6.6 and 3.8 | AVERAGE CECAL LESION SCORES ([2]; Table XXIV, 4-Bromo naphthaleneamine ppm r18-r21: 4,8,12,16): 2.9 and 3.5 and 3.0

[H]/N=C(/N)N[C@H]1[C@H](O)[C@@H](O)[C@H](O[C@@H]2O[C@@H](C)[C@](O)(C=O)[C@H]2O[C@@H]2O[C@@H](CO)[C@H](O)[C@@H](O)[C@@H]2NC)[C@@H](N/C(N)=N\[H])[C@@H]1O [streptomycin]
resistance / sensitivity of culture A82810.1 to the antibiotic [1]: sensitive

CO[C@H]1C[C@H](O[C@H]2[C@H](C)[C@@H](O[C@@H]3O[C@H](C)C[C@H](N(C)C)[C@H]3O)[C@@H](C)C[C@@]3(CO3)C(=O)[C@H](C)[C@@H](O)[C@@H](C)[C@@H](C)OC(=O)[C@@H]2C)O[C@@H](C)[C@@H]1O [oleandomycin]
Resistance to: (A82810.1) [1]: - | resistance / sensitivity of culture A82810.1 to the antibiotic [1]: sensitive | Resistance to: (A. verrucosospora) (A. verrucosospora): +

CC1(C)S[C@@H]2[C@H](NC(=O)Cc3ccccc3)C(=O)N2[C@H]1C(=O)O [penicillin G]
Resistance to: (A82810.1) [1]: + | resistance / sensitivity of culture A82810.1 to the antibiotic [1]: resistant | Resistance to: (A. verrucosospora) (A. verrucosospora): -

NC[C@H]1O[C@H](O[C@H]2[C@H](O)[C@@H](O[C@H]3O[C@H](CO)[C@@H](O)[C@H](N)[C@H]3O)[C@H](N)C[C@@H]2N)[C@H](N)C[C@@H]1O [tobramycin]
resistance / sensitivity of culture A82810.1 to the antibiotic [1]: sensitive

O=[N+]([O-])c1cc([N+](=O)[O-])c(Nc2ccc(OC(F)(F)C(F)F)cc2)c(C(F)(F)F)c1 [Benzeneamine, 2,4-Dinitro-N-[4-(1,1,2,2-tetrafluoroethoxy)phenyl]-6-(trifluoromethyl)benzeneamine]
WEIGHT GAIN, PERCENT OF CONTROL ([4]; Table IX, Benzeneamine ppm r4-r8: 16,18,20,22,24): 91% OF CONTROL and 84% OF CONTROL and 88% OF CONTROL and 85% OF CONTROL | AVERAGE CECAL LESION SCORES ([4]; Table IX, Benzeneamine ppm r20-r24: 16,18,20,22,24): 2.9 and 3.0 and 2.6 and 1.6 | WEIGHT GAIN, PERCENT OF CONTROL ([4]; Table VII, Benzeneamine ppm r11-r14: 4,8,12,16): 90% OF CONTROL and 94% OF CONTROL and 88% OF CONTROL and 87% OF CONTROL | WEIGHT GAIN, PERCENT OF CONTROL ([4]; Table VIII, Benzeneamine ppm r4-r7: 8,10,12,14): 76% OF CONTROL and 77% OF CONTROL and 75% OF CONTROL and 70% OF CONTROL | AVERAGE INTESTINAL LESION SCORES ([4]; Table VIII, Benzeneamine ppm r11-r14: 8,10,12,14): 5.9 and 4.8 and 4.5 | AVERAGE CECAL LESION SCORES ([4]; Table VIII, Benzeneamine ppm r18-r21: 8,10,12,14): 3.3 and 3.2 and 3.1 and 2.8 | WEIGHT GAIN, PERCENT OF CONTROL ([5]; Benzeneamine ppm r4-r7: 4,8,12,16): 74% OF CONTROL and 71% OF CONTROL and 82% OF CONTROL and 75% OF CONTROL | AVERAGE INTESTINAL LESION SCORES ([5]; Benzeneamine ppm r11-r14: 4,8,12,16): 6.9 and 8.4 and 6.3 and 5.8 | WEIGHT GAIN, PERCENT OF CONTROL ([6]; Table XIV, Benzeneamine ppm r4-r7: 8,10,12,14): 90% OF CONTROL and 88% OF CONTROL and 92% OF CONTROL | AVERAGE INTESTINAL LESION SCORES ([6]; Table XIV, Benzeneamine ppm r11-r14: 8,10,12,14): 3.8 and 3.7 and 3.3 | WEIGHT GAIN, PERCENT OF CONTROL ([6]; Table XV, Benzeneamine ppm r4-r7: 9,10,11,12): 90% OF CONTROL and 94% OF CONTROL and 87% OF CONTROL and 84% OF CONTROL | AVERAGE INTESTINAL LESION SCORES ([6]; Table XV, Benzeneamine ppm r11-r14: 9,10,11,12): 4.0 and 3.8 and 3.7 | WEIGHT GAIN, PERCENT OF CONTROL ([6]; Table XVI, Benzeneamine ppm r4-r8: 16,18,20,22,24): 71% OF CONTROL and 76% OF CONTROL and 81% OF CONTROL and 79% OF CONTROL and 83% OF CONTROL | AVERAGE INTESTINAL LESION SCORES ([6]; Table XVI, Benzeneamine ppm r12-r16: 16,18,20,22,24): 4.0 and 3.1 and 3.4 and 3.7 and 2.6 | LESION SCORE ([6]; Table XVII, Benzeneamine ppm r4-r6: 8,12,16): 3.3 and 2.9 and 2.4 | WEIGHT GAIN, PERCENT OF CONTROL ([6]; Table XVII, Benzeneamine ppm r10-r12: 8,12,16): 68% OF CONTROL and 59% OF CONTROL and 74% OF CONTROL | INTESTINAL LESION SCORE ([6]; Table XVIII, Benzeneamine ppm r4-r6: 8,12,16): 4.0 and 3.9 and 3.3 | WEIGHT GAIN, PERCENT OF CONTROL ([6]; Table XVIII, Benzeneamine ppm r10-r12: 8,12,16): 91% OF CONTROL and 95% OF CONTROL and 93% OF CONTROL | TOTAL LESION SCORE ([2]; Table VI, Benzeneamine ppm r4-r7: 4,8,12,16): 12.4 and 10.9 and 10.4 and 10.8 | WEIGHT GAIN, PERCENT OF CONTROL ([2]; Table VI, Benzeneamine ppm r11-r14: 4,8,12,16): 75% OF CONTROL and 68% OF CONTROL and 73% OF CONTROL and 76% OF CONTROL | AVERAGE INTESTINAL LESION SCORES [7, 9]: 6.0 and 5.1 and 4.7 | WEIGHT GAIN, PERCENT OF CONTROL [7, 10]: 62% OF CONTROL and 64% OF CONTROL and 69% OF CONTROL | INTESTINAL LESION SCORE ([3]; Table XI, Benzeneamine ppm r4-r6: 8,12,16): 3.6 and 3.9 and 3.3 | WEIGHT GAIN, PERCENT OF CONTROL ([3]; Table XI, Benzeneamine ppm r10-r12: 8,12,16): 77% OF CONTROL and 84% OF CONTROL and 87% OF CONTROL | AVERAGE INTESTINAL LESION SCORES ([3]; Table XII, Benzeneamine ppm r4-r6: 8,12,16): 2.6 and 2.2 and 2.3 | WEIGHT GAIN, PERCENT OF CONTROL ([3]; Table XII, Benzeneamine ppm r10-r12: 8,12,16): 79% OF CONTROL and 88% OF CONTROL and 102% OF CONTROL | LESION SCORE [8, 9]: 9.4 and 8.4 and 8.0 | WEIGHT GAIN, PERCENT OF CONTROL [8, 10]: 70% OF CONTROL and 72% OF CONTROL and 74% OF CONTROL | PERCENT REDUCTION IN OOCYST PRODUCTION ([8]; Benzeneamine ppm r16-r18: 8,12,16): 17% and 18% and 20% | WEIGHT GAIN, PERCENT OF CONTROL (E. maxima Strain LIT-626): 94% OF CONTROL and 99% OF CONTROL and 93% OF CONTROL and 98% OF CONTROL

CN[C@H](CC(C)C)C(=O)N[C@H]1C(=O)N[C@@H](CC(N)=O)C(=O)N[C@H]2C(=O)N[C@H]3C(=O)N[C@H](C(=O)N[C@H](C(=O)O)c4cc(O)cc(O)c4-c4cc3ccc4O)[C@H](O)c3ccc(c(Cl)c3)Oc3cc2cc(c3O[C@@H]2O[C@H](CO)[C@@H](O)[C@H](O)[C@H]2O[C@H]2C[C@](C)(N)[C@H](O)[C@H](C)O2)Oc2ccc(cc2Cl)[C@H]1O [vancomycin]
resistance / sensitivity of culture A82810.1 to the antibiotic [1]: sensitive

CC(=O)OCC1=C(C(=O)O)N2C(=O)[C@@H](NC(=O)Cc3cccs3)[C@H]2SC1 [cephalothin]
resistance / sensitivity of culture A82810.1 to the antibiotic [1]: resistant

CC[C@H](C)[C@H](N)C1=N[C@H](C(=O)N[C@@H](CC(C)C)C(=O)N[C@H](CCC(=O)O)C(=O)N[C@H](C(=O)N[C@H]2CCCCNC(=O)[C@H](CC(N)=O)NC(=O)[C@@H](CC(=O)O)NC(=O)[C@H](Cc3cnc[nH]3)NC(=O)[C@@H](Cc3ccccc3)NC(=O)[C@H]([C@@H](C)CC)NC(=O)[C@@H](CCCN)NC2=O)[C@@H](C)CC)CS1 [bacitracin] ({Ileψ(thiazoline)Cys}-L[dE]IK[dOrn]I[dF]H[dD]N; lactam 4-C)
resistance / sensitivity of culture A82810.1 to the antibiotic [1]: sensitive
